Literature values in patent US12295916B2, “Process for making aqueous therapeutic particle having stable exterior water clustering with nanosized thickness” (priority 2019, dated 2025).

Conditions: given by injection

## CNC1(c2ccccc2Cl)CCCCC1=O (centres unmarked) [Ketamine]
  duration of effects: ≤ 25 min
  time to begin of effects: five
